Measured values taken from patent US20210395239A1 (Hoffmann-La Roche Inc., priority 2018, published 2021).

Molecular target: T1, human TLR8 (Homo sapiens, UniProt Q9NR97)
T1 construct: host or cells: HEK293 (HEK-Blue hTLR8)
T1 sequence (Q9NR97 27-1041): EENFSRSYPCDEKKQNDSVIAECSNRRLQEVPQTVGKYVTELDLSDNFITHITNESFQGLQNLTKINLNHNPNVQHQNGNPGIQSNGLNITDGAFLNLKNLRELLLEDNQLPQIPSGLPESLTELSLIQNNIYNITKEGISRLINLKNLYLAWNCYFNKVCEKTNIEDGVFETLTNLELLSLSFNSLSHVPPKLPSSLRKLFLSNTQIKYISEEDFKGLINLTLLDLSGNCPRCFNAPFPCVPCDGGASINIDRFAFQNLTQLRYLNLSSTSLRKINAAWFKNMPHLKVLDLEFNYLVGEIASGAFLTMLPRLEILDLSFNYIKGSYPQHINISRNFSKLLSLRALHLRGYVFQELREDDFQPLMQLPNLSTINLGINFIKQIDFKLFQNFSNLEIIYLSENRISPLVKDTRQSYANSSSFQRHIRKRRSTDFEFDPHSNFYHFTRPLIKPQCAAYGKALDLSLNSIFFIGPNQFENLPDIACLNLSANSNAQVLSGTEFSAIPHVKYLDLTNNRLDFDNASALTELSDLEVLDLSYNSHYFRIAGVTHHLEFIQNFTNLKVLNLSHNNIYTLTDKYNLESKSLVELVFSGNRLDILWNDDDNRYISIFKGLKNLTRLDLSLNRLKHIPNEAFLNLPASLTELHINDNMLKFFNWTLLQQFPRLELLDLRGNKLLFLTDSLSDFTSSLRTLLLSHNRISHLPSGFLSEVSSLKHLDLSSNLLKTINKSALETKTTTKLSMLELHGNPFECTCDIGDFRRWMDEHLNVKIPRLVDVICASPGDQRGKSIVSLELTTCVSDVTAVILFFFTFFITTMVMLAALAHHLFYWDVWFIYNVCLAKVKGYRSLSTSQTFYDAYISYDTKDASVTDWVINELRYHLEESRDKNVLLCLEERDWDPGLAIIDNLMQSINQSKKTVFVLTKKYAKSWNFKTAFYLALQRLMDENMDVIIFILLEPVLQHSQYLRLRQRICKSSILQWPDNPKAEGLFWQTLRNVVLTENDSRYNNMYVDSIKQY
Assay: HEK293-Blue-hTLR-8 cells assay (SEAP reporter, R848 stimulation)
Type: cell-based
Details: HEK293-Blue-hTLR8 cells, R848, 20 hrs; read-out: HEK/hTLR8 IC50
Text: HEK293-Blue-hTLR-8 Cells Assay:
A stable HEK293-Blue-hTLR-8 cell line was purchased from InvivoGen (Cat. #: hkb-ht1r8, San Diego, Calif., USA). These cells were originally designed for studying the stimulation of human TLR8 by monitoring the activation of NF-κB. A SEAP (secreted embryonic alkaline phosphatase) reporter gene was placed under the control of the IFN-β minimal promoter fused to five NF-κB and AP-1-binding sites. The SEAP was induced by activating NF-κB and AP-1 via stimulating HEK-Blue hTLR8 cells with TLR8 ligands. Therefore the reporter expression was declined by TLR8 antagonist under the stimulation of a ligand, such as R848, for incubation of 20 hrs. The cell culture supernatant SEAP reporter activity was determined using QUANTI-Blue™ kit (Cat. #: rep-qb1, Invivogen, San Diego, Ca, USA) at a wavelength of 640 nm, a detection medium that turns purple or blue in the presence of alkaline phosphatase.
HEK293-Blue-hTLR8 cells were incubated at a density of 250,000˜450,000 cells/mL in a volume of 170 μL in a 96-well plate in Dulbecco's Modified Eagle's medium (DMEM) containing 4.5 g/L glucose, 50 U/mL penicillin, […], […], 2 mM L-glutamine, 10% (v/v) heat-inactivated fetal bovine serum with addition of 20 μL test compound in a serial dilution in the presence of final DMSO at 1% and 10 μL of 60 uM R848 in above DMEM, perform incubation under 37° C. in a CO2 incubator for 20 hrs. Then 20 μL of the supernatant from each well was incubated with 180 μL Quanti-blue substrate solution at 37° C. for 2 hrs and the absorbance was read at 620˜655 nm using a spectrophotometer. The signaling pathway that TLR8 activation leads to downstream NF-κB activation has been widely accepted, and therefore similar reporter assay was modified for evaluating TLR8 antagonist.

IC50 | Compound
1 nM | [2H]c1nc2c(C#N)ccc(N3C[C@H](CN4CCN(c5nc(C)cc(N6CC(N)C6)n5)CC4)O[C@H](C)C3)c2nc1[2H] [Example 124, 8-[(2S,6R)-2-[[4-[4-(3-aminoazetidin-1-yl)-6-methyl-pyrimidin-2-yl]piperazin-1-yl]methyl]-6-methyl-morpholin-4-yl]-2,3-dideuterio-quinoxaline-5-carbonitrile]
2 nM | Cc1cc(N2C[C@@H](N)[C@](C)(O)C2)nc(N2CCN(C[C@H]3CN(c4ccc(C#N)c5nccnc45)C[C@@H](C)O3)CC2)n1 [Example 125, 8-[(2S,6R)-2-[[4-[4-[(3R,4R)-4-amino-3-hydroxy-3-methyl-pyrrolidin-1-yl]-6-methyl-pyrimidin-2-yl]piperazin-1-yl]methyl]-6-methyl-morpholin-4-yl]quinoxaline-5-carbonitrile]
6 nM | Cc1ccc(N2C[C@H](CN3CCN(c4ccnc(N5CC6(CNCCO6)C5)n4)CC3)O[C@H](C)C2)c2nccnc12 [Example 126, 2-[4-[4-[[(2S,6R)-6-methyl-4-(8-methylquinoxalin-5-yl)morpholin-2-yl]methyl]piperazin-1-yl]pyrimidin-2-yl]-5-oxa-2,8-diazaspiro[3.5]nonane]
9 nM | Cc1ccc(N2C[C@H](CN3CCN(c4ccnc(N5CCN[C@@H](C)C5)n4)CC3)O[C@H](C)C2)c2nccnc12 [Example 127, (2R,6S)-2-methyl-6-[[4-[2-[(3S)-3-methylpiperazin-1-yl]pyrimidin-4-yl]piperazin-1-yl]methyl]-4-(8-methylquinoxalin-5-yl)morpholine]
12 nM | Cc1ccc(N2C[C@H](CN3CCN(c4ccnc(N5CCN[C@H](C)C5)n4)CC3)O[C@H](C)C2)c2nccnc12 [Example 128, (2R,6S)-2-methyl-6-[[4-[2-[(3R)-3-methylpiperazin-1-yl]pyrimidin-4-yl]piperazin-1-yl]methyl]-4-(8-methylquinoxalin-5-yl)morpholine]
7 nM | Cc1ccc(N2C[C@H](CN3CCN(c4ccnc(N5C[C@H]6NCCO[C@@H]6C5)n4)CC3)O[C@H](C)C2)c2nccnc12 [Example 129, (4aR,7aR)-6-[4-[4-[[(2S,6R)-6-methyl-4-(8-methylquinoxalin-5-yl)morpholin-2-yl]methyl]piperazin-1-yl]pyrimidin-2-yl]-3,4,4a,5,7,7a-hexahydro-2H-pyrrolo[3,4-b][1,4]oxazine]
8 nM | Cc1ccc(N2C[C@H](CN3CCN(c4ccnc(N5CC(N)C5)n4)CC3)O[C@H](C)C2)c2nccnc12 [Example 130, 1-[4-[4-[[(2S,6R)-6-methyl-4-(8-methylquinoxalin-5-yl)morpholin-2-yl]methyl]piperazin-1-yl]pyrimidin-2-yl]azetidin-3-amine]
4 nM | [2H]c1ccc2c(N3C[C@H](CN4CCN(c5nc(OC)cc(N6CC(C)(N)C6)n5)CC4)O[C@H](C)C3)ccc(C#N)c2n1 [Example 131, 5-[(2S,6R)-2-[[4-[4-(3-amino-3-methyl-azetidin-1-yl)-6-methoxy-pyrimidin-2-yl]piperazin-1-yl]methyl]-6-methyl-morpholin-4-yl]-2-deuterio-quinoline-8-carbonitrile]
16 nM | [2H]c1ccc2c(N3C[C@H](CN4CCN(c5ccc(N6CC(C)(N)C6)nc5)CC4)O[C@H](C)C3)ccc(C#N)c2n1 [Example 132, 5-[(2S,6R)-2-[[4-[6-(3-amino-3-methyl-azetidin-1-yl)-3-pyridyl]piperazin-1-yl]methyl]-6-methyl-morpholin-4-yl]-2-deuterio-quinoline-8-carbonitrile]
17 nM | [2H]c1ccc2c(N3C[C@H](CN4CCN(c5cnc(N6CC(C)(N)C6)cc5C)CC4)O[C@H](C)C3)ccc(C#N)c2n1 [Example 133, 5-[(2S,6R)-2-[[4-[6-(3-amino-3-methyl-azetidin-1-yl)-4-methyl-3-pyridyl]piperazin-1-yl]methyl]-6-methyl-morpholin-4-yl]-2-deuterio-quinoline-8-carbonitrile]
